For 14 compounds, IC50 and inhibition results are on record in patent publication US7605154B2, “Substituted Thiazolo [4,5-d]pyrimidines as protein kinase inhibitors” (Janssen Pharmaceutica N.V., priority 2005, dated 2009).

Each structure is given as a SMILES string.

In one assay the target is T1, EGFR (Homo sapiens, UniProt P00533).
T1 construct: started at nucleotide 2189 (corresponding to amino acid 667) and ended at the termination codon; made in house; host or cells: Sf9 insect cells (baculovirus)
T1 sequence (P00533 667-1210 limits assumed): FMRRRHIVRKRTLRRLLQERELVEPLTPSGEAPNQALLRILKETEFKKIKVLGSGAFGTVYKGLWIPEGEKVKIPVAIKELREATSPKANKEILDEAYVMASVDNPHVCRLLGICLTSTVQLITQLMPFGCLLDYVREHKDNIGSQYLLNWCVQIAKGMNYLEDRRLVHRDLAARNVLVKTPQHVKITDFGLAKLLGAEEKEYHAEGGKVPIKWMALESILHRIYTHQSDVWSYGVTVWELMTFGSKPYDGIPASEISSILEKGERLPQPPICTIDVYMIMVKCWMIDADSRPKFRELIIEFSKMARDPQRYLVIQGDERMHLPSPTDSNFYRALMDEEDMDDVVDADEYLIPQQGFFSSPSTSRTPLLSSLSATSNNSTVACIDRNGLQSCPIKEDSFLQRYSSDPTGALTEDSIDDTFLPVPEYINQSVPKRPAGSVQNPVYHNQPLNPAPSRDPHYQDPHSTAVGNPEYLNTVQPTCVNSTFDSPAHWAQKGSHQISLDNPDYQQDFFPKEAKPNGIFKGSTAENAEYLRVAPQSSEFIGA
In words: EGFR Kinase Assay. Conditions: GST-EGFR, 5 μM ATP. It counts as biochemical. The text has this:
The portion was PCR amplified with primers that added the lambda attB sequences to each end, recombined into an entry vector, then into a, GST destination vector (as described in Gateway Technologies Manual by Invitrogen Corporation, Carlsbad, Calif.).
The destination vector was recombined in the DH10BAC strain of bacteria to produce a bacmid. The bacmid was transfected into Sf 9 cells and the supernatant containing the baculovirus was collected. The GSTEGFR protein was purified using large cultures of Sf 9 cells infected with stock virus. After an appropriate period of time, the cells were collected and lysed. The GSTEGFR was then purified from the lysate on Glutathione-Sepharose columns (as described by Amersham Biosciences, Buckinghamshire, United Kingdom).
The free biotin was separated from the biotinylated polyGluTyr on a gel filtration column.
A mixture of a 10× kinase buffer (500 mM Tris at pH 8.0, 100 mM Magnesium Chloride and 1 mM Sodium Vanadate), DTT (1 mM final from 500 mM stock), ATP (5 μM final from 10 mM stock), biotinylated polyGluTyr (10 μg/μL stock), γ-^33P ATP (10 μCi/μL stock) and water was added to each well (90 μL/well) of a Streptavidin Flashplate (Perkin Elmer, Wellesley, Mass.).
Test compound in 100% DMSO (2 μL) was added to the appropriate wells. Diluted GSTEGFR (1:300 dilution in 50 mM Tris at pH 8.0 and 0.1% bovine serum albumin) (10 μL) was added to the wells to initiate the reactions.
The plates were incubated at 30° C. for 1 hr with shaking. The reacted contents were removed and the plates were sequentially washed three times with a 1×PBS stop buffer (300 μL without Magnesium and Calcium) and 100 mM EDTA. After the final wash, the same stop buffer (200 μL) was added to the wells. The plates were then sealed and read on the TopCount scintillation counter.
Test compounds were assayed in triplicate at 16 concentrations at half-log dilutions starting at 200 uM. A maximum and minimum signal for the assay was determined on each plate. The percent inhibition of a test compound was calculated according to the formula
For a series of test concentrations, the IC50 was derived by graphing percent inhibition against the log of the concentrations tested for a given compound.
`C#Cc1cccc(Nc2ncnc3nc(Nc4ccc(OC)nc4)sc23)c1` [Cpd 69, N^7-(3-ethynyl-phenyl)-N^2-(6-methoxy-pyridin-3-yl)-thiazolo[4,5-d]pyrinidine-2,7-diamine] had an IC50 of 28.6 nM. In other words, the double-digit nanomolar range.

With `NS(=O)(=O)c1ccc(Nc2nc3ncnc(Nc4cccc(Br)c4)c3s2)cc1` [Cpd 78, 4-[7-(3-bromo-phenylamino)-thiazolo[4,5-d]pyrimidin-2-ylamino]-benzenesulfonamide], half-maximal inhibition (IC50) required 10.5 nM. This IC50 is about 2.7-fold lower than that of the compound before.

The compound `C#Cc1cccc(Nc2ncnc3nc(Nc4ccc(CNCCOC(C)C)cc4)sc23)c1` [Cpd 55, N^7-(3-ethynyl-phenyl)-N^2-{4-[(2-isopropoxy-ethylamino)-methyl]-phenyl}-thiazolo[4,5-d]pyrimidine-2,7-diamine] returned a half-inhibitory concentration (IC50) of 8.25 nM.

With `C#Cc1cccc(Nc2ncnc3nc(Nc4ccc(NCCCN5CCOCC5)nc4)sc23)c1` [Cpd 72, N^7-(3-ethynyl-phenyl)-N^2-[6-(3-morpholin-4-yl-propylamino)-pyridin-3-yl]-thiazolo[4,5-d]pyrimidine-2,7-diamine], the IC50 is 28.2 nM.

On to `Clc1cccc(Nc2ncnc3nc(Nc4ccccc4)sc23)c1` [Cpd 89, N^7-(3-chloro-phenyl)-N^2-phenyl-thiazolo[4,5-d]pyrirnidine-2,7-diamine], for which the 50% inhibitory concentration (IC50) amounted to 27.1 nM.

`C#Cc1cccc(Nc2ncnc3nc(Nc4ccc(CN(C)C)cc4)sc23)c1` [Cpd 49, N^2-(4-dimethylaminomethyl-phenyl)-N^7-(3-ethynyl-phenyl)-thiazolo[4,5-d]pyriridine-2,7-diamine] registered an IC50 of 11.8 nM.

Compound `Fc1ccc(Nc2ncnc3nc(Nc4ccc(OCCN5CCOCC5)cc4)sc23)cc1Cl` [Cpd 14, N^7-(3-chloro-4-fluoro-phenyl)-N^2-[4-(2-morpholin-4-yl-ethoxy)-phenyl]-thiazolo[4,5-d]pyrimidine-2,7-diamine] came in with a concentration for half-maximal inhibition (IC50) of 59.4 nM. Against the preceding compound, the IC50 is about 5-fold higher.

For the compound `C#Cc1cccc(Nc2ncnc3nc(Nc4ccc(S(=O)(=O)NCCO)cc4)sc23)c1` [Cpd 58, 4-[7-(3-ethynyl-phenylamino)-thiazolo[4,5-d]pyrimidin-2-ylamino]-N-(2-hydroxy-ethyl)-benzenesulfonamide], 6.5 nM corresponded to half-maximal inhibition (IC50).

The compound `NS(=O)(=O)c1ccc(Nc2nc3ncnc(Nc4cccc(CN5CCOCC5)c4)c3s2)cc1` [Cpd 84, 4-[7-(3-(morpholin-4-yl)methyl-phenylamino)-thiazolo[4,5-d]pyrimidin-2-ylamino]-benzenesulfonamide] returned an IC50 of 3300 nM.

For `Fc1ccc(Nc2ncnc3nc(Nc4ccccc4)sc23)cc1Cl` [Cpd 88, N^7-(3-chloro-4-fluoro-phenyl)-N^2-phenyl-thiazolo[4,5-d]pyrimidine-2,7-diamine], the half-maximal inhibitory concentration (IC50) was 59.3 nM.

For `c1ccc(Cn2ncc3ccc(Nc4ncnc5nc(Nc6ccc(CN7CCOCC7)cc6)sc45)cc32)cc1` [Cpd 36, N^7-(1-benzyl-1H-indazol-6-yl)-N^2-(4-morpholin-4-ylmethyl-phenyl)-thiazolo[4,5-d]pyrimidine-2,7-diamine], the half-maximal inhibitory concentration (IC50) was 1020 nM.

`Fc1ccc(Nc2ncnc3nc(NCCN4CCOCC4)sc23)cc1Cl` [Cpd 51, N^7-(3-chloro-4-fluoro-phenyl)-N^2-(2-morpholin-4-yl-ethyl)-thiazolo[4,5-d]pyrimidine-2,7-diamine] showed an IC50 of 918 nM.

`Fc1ccc(Nc2ncnc3nc(Nc4ccc(CNC[C@H]5CCCO5)cc4)sc23)cc1Cl` [Cpd 67, N^7-(3-chloro-4-fluoro-phenyl)-N^2-(4-{[(2R)-(tetrahydro-furan-2-ylmethyl)-amino]-methyl}-phenyl)-thiazolo[4,5-d]pyrimidine-2,7-diamine]: the concentration for half-maximal inhibition (IC50) amounted to 3.7 nM. This IC50 lies about 250-fold lower than the previous one.

The same assay, now with this note: test concentration of 2 μM; compounds without an IC50; read-out: EGFR percent inhibition.
On to `COc1ccc(Nc2ncnc3nc(Nc4ccc(S(N)(=O)=O)cc4)sc23)cc1CN1CCOCC1` [Cpd 87, 4-[7-(4-methoxy-3-(morpholin-4-yl)methyl-phenylamino)-thiazolo[4,5-d]pyrimidin-2-ylamino]-benzenesulfonamide], for which the inhibition at 2 µM was 13%.
